Data taken from BindingDB's records for doi:10.7270/Q2ZW1JC6 (Nmmlsc, 2016).

Target: Ras-related protein Rab-2A (Canis lupus familiaris, UniProt P61105)
Test: Rab2 wildtype GTP-binding inhibitors, SAR follow-up, biochemical, pyrazoline series, Bodipy-FL-GTP, flow cytometry, multiplex (AID 2045)
[1] = inactive by the depositor's call

Ras-related protein Rab-2A, sequence (P61105 whole entry): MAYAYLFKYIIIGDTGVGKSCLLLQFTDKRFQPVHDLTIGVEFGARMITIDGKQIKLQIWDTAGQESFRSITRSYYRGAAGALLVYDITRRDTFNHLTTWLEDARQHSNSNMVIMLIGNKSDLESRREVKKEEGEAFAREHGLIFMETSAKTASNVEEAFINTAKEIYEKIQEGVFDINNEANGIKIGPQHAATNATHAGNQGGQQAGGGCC

SMILES | EC50 | EC50 [1]
NS(=O)(=O)c1ccc(N2N=C(c3ccc(Cl)cc3)CC2c2ccccc2)cc1 (stereo unspecified) | – | 0.056 µM
COc1ccc(C2=NN(c3cccc(F)c3)C(c3ccc(OC)cc3)C2)cc1 (stereo unspecified) [2-(3-fluorophenyl)-3,5-bis(4-methoxyphenyl)-3,4-dihydropyrazole] | – | 1 µM
COc1ccc(C2CC(c3ccccc3)=NN2c2cccc(S(N)(=O)=O)c2)cc1 (stereo unspecified) [3-[3-(4-methoxyphenyl)-5-phenyl-3,4-dihydropyrazol-2-yl]benzenesulfonamide] | – | 0.074 µM
COc1ccc(C2=NN(c3ccc(S(N)(=O)=O)cc3)C(c3ccc(OC)cc3)C2)cc1 (stereo unspecified) [4-[3,5-bis(4-methoxyphenyl)-3,4-dihydropyrazol-2-yl]benzenesulfonamide] | – | 1.69 µM
COc1ccc(C2CC(c3ccsc3)=NN2c2ccc(S(N)(=O)=O)cc2)cc1 (stereo unspecified) [4-[3-(4-methoxyphenyl)-5-thiophen-3-yl-3,4-dihydropyrazol-2-yl]benzenesulfonamide] | > 30 µM | –
COc1ccc(C2CC(c3ccccc3Cl)=NN2c2ccc(S(N)(=O)=O)cc2)cc1 (stereo unspecified) [4-[5-(2-chlorophenyl)-3-(4-methoxyphenyl)-3,4-dihydropyrazol-2-yl]benzenesulfonamide] | > 30 µM | –
COc1ccc(C2CC(c3cccc(F)c3)=NN2c2ccc(S(N)(=O)=O)cc2)cc1 (stereo unspecified) [4-[5-(3-fluorophenyl)-3-(4-methoxyphenyl)-3,4-dihydropyrazol-2-yl]benzenesulfonamide] | > 30 µM | –
COc1ccc(C2CC(c3cccc(OC)c3)=NN2c2ccc(S(N)(=O)=O)cc2)cc1 (stereo unspecified) [4-[5-(3-methoxyphenyl)-3-(4-methoxyphenyl)-3,4-dihydropyrazol-2-yl]benzenesulfonamide] | > 30 µM | –
NS(=O)(=O)c1ccc(N2N=C(c3ccc(Br)cc3)CC2c2ccc(F)cc2)cc1 (stereo unspecified) [4-[5-(4-bromophenyl)-3-(4-fluorophenyl)-3,4-dihydropyrazol-2-yl]benzenesulfonamide] | > 30 µM | –
COc1ccc(C2CC(c3ccc(F)cc3)=NN2c2ccc(S(N)(=O)=O)cc2)cc1 (stereo unspecified) [4-[5-(4-fluorophenyl)-3-(4-methoxyphenyl)-3,4-dihydropyrazol-2-yl]benzenesulfonamide] | – | 0.015 µM
COc1ccc(-c2cc(-c3ccccc3)nn2-c2ccc(S(N)(=O)=O)cc2)cc1 [4-[5-(4-methoxyphenyl)-3-phenylpyrazol-1-yl]benzenesulfonamide] | > 30 µM | –
COc1ccc(C2CC(C3CCCCC3)=NN2c2ccc(S(N)(=O)=O)cc2)cc1 (stereo unspecified) [4-[5-cyclohexyl-3-(4-methoxyphenyl)-3,4-dihydropyrazol-2-yl]benzenesulfonamide] | > 30 µM | –
O=S(=O)(c1ccc(N2N=C(c3ccc(Br)cc3)CC2c2ccccc2)cc1)C(F)F (stereo unspecified) [5-(4-bromophenyl)-2-[4-(difluoromethylsulfonyl)phenyl]-3-phenyl-3,4-dihydropyrazole] | > 30 µM | –
FC(F)(F)c1ccccc1C1CC(c2ccc(Br)cc2)=NN1c1ccccc1 (stereo unspecified) [5-(4-bromophenyl)-2-phenyl-3-[2-(trifluoromethyl)phenyl]-3,4-dihydropyrazole] | > 30 µM | –
O=[N+]([O-])c1cccc(C2C[C-](c3ccc(F)cc3)N=[N+]2c2ccccc2)c1 (stereo unspecified) [5-(4-fluorophenyl)-3-(3-nitrophenyl)-2-phenyl-3,4-dihydropyrazole] | > 30 µM | –
Cc1ccc(-c2cc(C(F)(F)F)nn2-c2ccc(S(N)(=O)=O)cc2)cc1 [Celecoxib] | > 30 µM | –
COc1ccc(C2CC(c3ccc(N(C)C)cc3)=NN2c2ccc(S(N)(=O)=O)cc2)cc1 (stereo unspecified) [KUC103422N] | > 30 µM | –
COc1ccc(C2CC(c3cccs3)=NN2c2ccc(S(N)(=O)=O)cc2)cc1 (stereo unspecified) [KUC103438N] | > 30 µM | –
NS(=O)(=O)c1ccc(N2N=C(c3ccccc3)CC2c2ccccc2Cl)cc1 (stereo unspecified) [KUC103446N] | > 30 µM | –
COc1ccc(C2CC(C(C)(C)C)=NN2c2ccc(S(N)(=O)=O)cc2)cc1 (stereo unspecified) [KUC103450N] | > 30 µM | –
COc1ccc(C2CC(c3ccccc3C(F)(F)F)=NN2c2ccc(S(N)(=O)=O)cc2)cc1 (stereo unspecified) [KUC103474N] | > 30 µM | –
Cc1ccccc1N1N=C(c2ccccc2)CC1c1ccc(N(C)C)cc1 (stereo unspecified) [N,N-dimethyl-4-[2-(2-methylphenyl)-5-phenyl-3,4-dihydropyrazol-3-yl]aniline] | > 30 µM | –
COc1ccc(C2CC(c3ccccc3)=NN2c2ccc(S(N)(=O)=O)cc2)cc1OC (stereo unspecified) [UNM-0000305823] | > 30 µM | –
COc1ccc(C2CC(c3ccc(Br)cc3)=NN2c2ccccc2Cl)cc1 (stereo unspecified) [UNM-0000305832] | > 30 µM | –
COc1ccc(C2=NN(c3ccccc3)C(c3ccc(Cl)cc3)C2)cc1 (stereo unspecified) [UNM-0000305833] | > 30 µM | –
O=S(=O)(O)c1ccc(N2N=C(c3ccccc3)CC2c2ccccc2)cc1 (stereo unspecified) [UNM-0000305834] | > 30 µM | –
Cc1cccc(N2N=C(c3ccccc3)CC2c2ccccc2)c1 (stereo unspecified) [UNM-0000305835] | > 30 µM | –
O=[N+]([O-])c1ccc([N+]2=N[C-](c3ccccc3)CC2c2ccc(O)cc2)cc1 (stereo unspecified) [UNM-0000305838] | > 30 µM | –

Results, then the molecule that gave them:

EC50 | EC50 [1] | SMILES
> 30 µM | – | Cc1onc(-c2ccccc2)c1-c1ccc(S(N)(=O)=O)cc1
> 30 µM | – | O=[N+]([O-])c1ccc([N+]2=N[C-](c3ccccc3)CC2c2ccccc2)cc1 (stereo unspecified)
> 30 µM | – | Brc1ccc(N2N=C(c3ccccc3)CC2c2ccccc2)cc1 (stereo unspecified)
> 30 µM | – | COc1ccccc1C1CC(c2ccccc2)=NN1c1ccccc1 (stereo unspecified)
> 30 µM | – | Clc1cccc(N2N=C(c3ccccc3)CC2c2ccccc2)c1 (stereo unspecified)
> 30 µM | – | Clc1ccc(N2N=C(c3ccccc3)CC2c2ccccc2)cc1 (stereo unspecified)
> 30 µM | – | CC(=O)Oc1ccc(C2=NN(c3ccccc3)C(c3ccccc3)C2)cc1 (stereo unspecified)
> 30 µM | – | O=C(O)c1ccc(N2N=C(c3ccccc3)CC2c2ccccc2)cc1 (stereo unspecified)
> 30 µM | – | COc1ccc(C2=NN(c3ccccc3)C(c3ccccc3C(F)(F)F)C2)cc1 (stereo unspecified)
> 30 µM | – | O=S(=O)(c1ccc(N2N=C(c3ccccc3)CC2c2ccccc2)cc1)C(F)F (stereo unspecified)
> 30 µM | – | CCc1ccc(C2=NN(c3ccc(S(N)(=O)=O)cc3)C(c3ccc(F)cc3)C2)cc1 (stereo unspecified)
> 30 µM | – | CN(C)c1ccc(C2C[C-](c3ccccc3)N=[N+]2c2ccc([N+](=O)[O-])cc2)cc1 (stereo unspecified)
> 30 µM | – | COc1ccc(C2CC(c3ccc(F)cc3)=NN2c2cccc(F)c2)cc1OC (stereo unspecified)
> 30 µM | – | COc1ccc(C2CC(c3ccccc3)=NN2c2ccc(Cl)c(C(=O)O)c2)cc1 (stereo unspecified)
> 30 µM | – | COc1ccc(C2CC(c3ccc(Cl)cc3)=NN2c2ccc(S(N)(=O)=O)cc2)cc1 (stereo unspecified)
> 30 µM | – | Cc1ccc(C2CC(c3ccccc3)=NN2c2ccc(S(N)(=O)=O)cc2)cc1 (stereo unspecified)
> 30 µM | – | Cc1cccc(C2CC(c3ccccc3)=NN2c2ccc(S(N)(=O)=O)cc2)c1 (stereo unspecified)
> 30 µM | – | COc1ccc(C2CC(c3ccccc3OC)=NN2c2ccc(S(N)(=O)=O)cc2)cc1 (stereo unspecified)
> 30 µM | – | COc1ccc(C2CC(c3ccc(C)cc3)=NN2c2ccc(S(N)(=O)=O)cc2)cc1 (stereo unspecified)

EC50 | EC50 [1] | SMILES
> 30 µM | – | COc1ccc(C2CC(c3cccc(C(F)(F)F)c3)=NN2c2ccc(S(N)(=O)=O)cc2)cc1 (stereo unspecified)
> 30 µM | – | COc1ccc(C2CC(c3cccc(N(C)C)c3)=NN2c2ccc(S(N)(=O)=O)cc2)cc1 (stereo unspecified)
> 30 µM | – | COc1ccc(C2CC(c3cccnc3)=NN2c2ccc(S(N)(=O)=O)cc2)cc1 (stereo unspecified)
> 30 µM | – | COc1ccc(C2CC(c3ccncc3)=NN2c2ccc(S(N)(=O)=O)cc2)cc1 (stereo unspecified)
> 30 µM | – | Fc1ccccc1C1CC(c2ccc(Br)cc2)=NN1c1ccc(Br)cc1 (stereo unspecified) [2,5-bis(4-bromophenyl)-3-(2-fluorophenyl)-3,4-dihydropyrazole]
> 30 µM | – | COc1ccc(C2CC(c3ccc(F)cc3)=NN2c2cc(Cl)ccc2Cl)cc1 (stereo unspecified) [2-(2,5-dichlorophenyl)-5-(4-fluorophenyl)-3-(4-methoxyphenyl)-3,4-dihydropyrazole]
> 30 µM | – | COc1ccc(C2=NN(c3ccc(Cl)c(Cl)c3)C(c3ccc(OC)cc3)C2)cc1 (stereo unspecified) [2-(3,4-dichlorophenyl)-3,5-bis(4-methoxyphenyl)-3,4-dihydropyrazole]
> 30 µM | – | Fc1ccc(C2=NN(c3cccc(Br)c3)C(c3ccccc3)C2)cc1 (stereo unspecified) [2-(3-bromophenyl)-5-(4-fluorophenyl)-3-phenyl-3,4-dihydropyrazole]
> 30 µM | – | COc1ccc(C2CC(c3ccccc3)=NN2c2ccc(Cl)c(C(=O)O)c2)cc1OC (stereo unspecified) [2-chloro-5-[3-(3,4-dimethoxyphenyl)-5-phenyl-3,4-dihydropyrazol-2-yl]benzoic acid]
> 30 µM | – | COc1ccc(C2=NN(c3cccc(F)c3)C(c3ccc(Cl)cc3)C2)cc1 (stereo unspecified) [3-(4-chlorophenyl)-2-(3-fluorophenyl)-5-(4-methoxyphenyl)-3,4-dihydropyrazole]
> 30 µM | – | COc1ccc(C2C[C-](c3ccccc3)N=[N+]2c2ccc([N+](=O)[O-])cc2)cc1 (stereo unspecified) [3-(4-methoxyphenyl)-2-(4-nitrophenyl)-5-phenyl-3,4-dihydropyrazole]
> 30 µM | – | CN(C)c1ccc(C2CC(c3ccccc3)=NN2c2ccccc2)cc1 (stereo unspecified) [4-(2,5-diphenyl-3,4-dihydropyrazol-3-yl)-N,N-dimethylaniline]
> 30 µM | – | NS(=O)(=O)c1ccc(N2N=C(c3ccccc3)CC2c2ccccc2)cc1 (stereo unspecified) [4-(3,5-diphenyl-3,4-dihydropyrazol-2-yl)benzenesulfonamide]
> 30 µM | – | NS(=O)(=O)c1ccc(N2N=C(c3ccccc3)CC2c2ccccc2Br)cc1 (stereo unspecified) [4-[3-(2-bromophenyl)-5-phenyl-3,4-dihydropyrazol-2-yl]benzenesulfonamide]
> 30 µM | – | COc1ccccc1C1CC(c2ccccc2)=NN1c1ccc(S(N)(=O)=O)cc1 (stereo unspecified) [4-[3-(2-methoxyphenyl)-5-phenyl-3,4-dihydropyrazol-2-yl]benzenesulfonamide]
> 30 µM | – | COc1cccc(C2CC(c3ccccc3)=NN2c2ccc(S(N)(=O)=O)cc2)c1 (stereo unspecified) [4-[3-(3-methoxyphenyl)-5-phenyl-3,4-dihydropyrazol-2-yl]benzenesulfonamide]
> 30 µM | – | NS(=O)(=O)c1ccc(N2N=C(c3ccccc3)CC2c2ccc(Cl)cc2)cc1 (stereo unspecified) [4-[3-(4-chlorophenyl)-5-phenyl-3,4-dihydropyrazol-2-yl]benzenesulfonamide]
> 30 µM | – | COc1ccc(C2CC(c3ccc(C(F)(F)F)cc3)=NN2c2ccc(S(N)(=O)=O)cc2)cc1 (stereo unspecified) [4-[3-(4-methoxyphenyl)-5-[4-(trifluoromethyl)phenyl]-3,4-dihydropyrazol-2-yl]benzenesulfonamide]
> 30 µM | – | COc1ccc(C2CC(C)=NN2c2ccc(S(N)(=O)=O)cc2)cc1 (stereo unspecified) [4-[3-(4-methoxyphenyl)-5-methyl-3,4-dihydropyrazol-2-yl]benzenesulfonamide]
